Data published in article PMC5097156, “Potent and selective chemical probe of hypoxic signalling downstream of HIF-α hydroxylation via VHL inhibition” (Nature Communications, 2016).

How the values were obtained:
Assay in all cases: biochemical
Set-up in all cases: CEREP ExpresSProfile competition binding, remaining control specific binding of reference compound
Conditions in all cases: radioligand binding; read-out: Mean % of control specific binding (±sd)
5-HT transporter (h) = molecular target: T1, 5-HT transporter (h) (Homo sapiens, UniProt P31645)
T1 construct: gene SLC6A4

5-HT1A (h) = molecular target: T2, 5-HT1A (h) (Homo sapiens, UniProt P08908)
T2 construct: gene HTR1A

5-HT2B (h) = molecular target: T3, 5-HT2B (h) (Homo sapiens, UniProt P41595)
T3 construct: gene HTR2B

5-HT3 (h) = molecular target: T4, 5-HT3 (h) (Homo sapiens, UniProt P46098)
T4 construct: gene HTR3A
T4 sequence (P46098 whole entry): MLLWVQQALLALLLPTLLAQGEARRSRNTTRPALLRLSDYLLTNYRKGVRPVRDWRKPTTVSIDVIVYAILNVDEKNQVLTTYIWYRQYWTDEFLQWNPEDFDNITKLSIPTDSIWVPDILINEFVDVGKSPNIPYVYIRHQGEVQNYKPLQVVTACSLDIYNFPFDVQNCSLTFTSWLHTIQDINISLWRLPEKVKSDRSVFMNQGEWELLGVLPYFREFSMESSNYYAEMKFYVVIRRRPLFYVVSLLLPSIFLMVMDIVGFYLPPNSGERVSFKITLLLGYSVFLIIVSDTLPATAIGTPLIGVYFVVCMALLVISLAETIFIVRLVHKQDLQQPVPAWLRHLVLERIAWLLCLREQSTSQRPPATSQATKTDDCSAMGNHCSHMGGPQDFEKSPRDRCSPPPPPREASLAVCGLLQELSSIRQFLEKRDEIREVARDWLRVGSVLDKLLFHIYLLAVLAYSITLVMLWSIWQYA

5-HT5a (h) = molecular target: T5, 5-HT5a (h) (Homo sapiens, UniProt P47898)
T5 construct: gene HTR5A

5-HT7 (h) = molecular target: T6, 5-HT7 (h) (Homo sapiens, UniProt P34969)
T6 construct: gene HTR7

A1 (h) = molecular target: T7, A1 (h) (Homo sapiens, UniProt P30542)
T7 construct: gene ADORA1

A2A (h) = molecular target: T8, A2A (h) (Homo sapiens, UniProt P29274)
T8 construct: gene ADORA2A
T8 sequence (P29274 whole entry): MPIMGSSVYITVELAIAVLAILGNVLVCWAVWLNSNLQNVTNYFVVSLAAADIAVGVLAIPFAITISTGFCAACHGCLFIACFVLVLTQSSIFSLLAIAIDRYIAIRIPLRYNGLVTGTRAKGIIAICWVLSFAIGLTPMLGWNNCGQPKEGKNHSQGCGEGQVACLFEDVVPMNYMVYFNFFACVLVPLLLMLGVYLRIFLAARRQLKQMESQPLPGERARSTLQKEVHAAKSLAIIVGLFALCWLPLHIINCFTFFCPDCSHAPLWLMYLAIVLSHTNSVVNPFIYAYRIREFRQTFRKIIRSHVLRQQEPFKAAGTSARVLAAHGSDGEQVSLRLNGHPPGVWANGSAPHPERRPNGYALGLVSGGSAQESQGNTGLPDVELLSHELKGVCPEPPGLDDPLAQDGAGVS

A3 (h) = molecular target: T9, A3 (h) (Homo sapiens, UniProt P0DMS8)
T9 construct: gene ADORA3
T9 sequence (P0DMS8 whole entry): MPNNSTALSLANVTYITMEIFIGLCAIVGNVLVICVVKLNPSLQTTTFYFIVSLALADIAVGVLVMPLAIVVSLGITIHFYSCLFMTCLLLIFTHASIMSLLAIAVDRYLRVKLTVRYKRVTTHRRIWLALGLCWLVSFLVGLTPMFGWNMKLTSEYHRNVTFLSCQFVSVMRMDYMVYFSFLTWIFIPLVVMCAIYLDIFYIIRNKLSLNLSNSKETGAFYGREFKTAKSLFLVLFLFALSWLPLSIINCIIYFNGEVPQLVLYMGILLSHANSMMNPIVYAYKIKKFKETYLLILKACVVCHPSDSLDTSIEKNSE

CB1 (h) = molecular target: T10, CB1 (h) (Homo sapiens, UniProt P21554)
T10 construct: gene CNR1

D1 (h) = molecular target: T11, D1 (h) (Homo sapiens, UniProt P21728)
T11 construct: gene DRD1

ETA (h) = molecular target: T12, ETA (h) (Homo sapiens, UniProt P25101)
T12 construct: gene EDNRA

H1 (h) = molecular target: T13, H1 (h) (Homo sapiens, UniProt P35367)
T13 construct: gene HRH1

H2 (h) = molecular target: T14, H2 (h) (Homo sapiens, UniProt P25021)
T14 construct: gene HRH2

M1 (h) = molecular target: T15, M1 (h) (Homo sapiens, UniProt P11229)
T15 construct: gene CHRM1

M2 (h) = molecular target: T16, M2 (h) (Homo sapiens, UniProt P08172)
T16 construct: gene CHRM2
T16 sequence (P08172 whole entry): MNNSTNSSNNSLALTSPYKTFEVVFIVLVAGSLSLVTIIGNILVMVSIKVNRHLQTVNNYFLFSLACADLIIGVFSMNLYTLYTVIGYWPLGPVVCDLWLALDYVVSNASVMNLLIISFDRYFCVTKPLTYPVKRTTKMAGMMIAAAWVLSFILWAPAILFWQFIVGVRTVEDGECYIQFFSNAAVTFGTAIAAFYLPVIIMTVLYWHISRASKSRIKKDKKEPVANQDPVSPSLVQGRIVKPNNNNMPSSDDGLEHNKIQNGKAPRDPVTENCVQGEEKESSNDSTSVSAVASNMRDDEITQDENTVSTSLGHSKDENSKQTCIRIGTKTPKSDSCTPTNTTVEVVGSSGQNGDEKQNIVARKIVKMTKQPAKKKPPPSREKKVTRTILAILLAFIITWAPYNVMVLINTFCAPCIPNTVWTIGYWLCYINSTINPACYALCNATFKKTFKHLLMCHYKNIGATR

M3 (h) = molecular target: T17, M3 (h) (Homo sapiens, UniProt P20309)
T17 construct: gene CHRM3
T17 sequence (P20309 whole entry): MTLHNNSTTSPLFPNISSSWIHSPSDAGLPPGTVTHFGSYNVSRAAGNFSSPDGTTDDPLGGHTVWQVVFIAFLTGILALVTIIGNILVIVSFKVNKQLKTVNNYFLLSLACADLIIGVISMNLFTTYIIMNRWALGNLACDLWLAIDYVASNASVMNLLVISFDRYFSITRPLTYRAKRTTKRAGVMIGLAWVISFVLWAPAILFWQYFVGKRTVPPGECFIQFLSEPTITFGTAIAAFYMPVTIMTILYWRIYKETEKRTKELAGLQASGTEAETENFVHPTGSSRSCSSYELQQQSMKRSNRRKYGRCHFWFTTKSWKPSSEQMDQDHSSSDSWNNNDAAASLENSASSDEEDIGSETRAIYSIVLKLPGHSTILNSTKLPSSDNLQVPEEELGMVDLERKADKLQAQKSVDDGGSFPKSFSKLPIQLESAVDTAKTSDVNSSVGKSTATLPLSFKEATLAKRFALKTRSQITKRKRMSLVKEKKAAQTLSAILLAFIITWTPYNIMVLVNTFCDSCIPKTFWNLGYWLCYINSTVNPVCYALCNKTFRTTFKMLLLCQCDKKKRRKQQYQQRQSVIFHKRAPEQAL

NK2 (h) = molecular target: T18, NK2 (h) (Homo sapiens, UniProt P21452)
T18 construct: gene TACR2
T18 sequence (P21452 whole entry): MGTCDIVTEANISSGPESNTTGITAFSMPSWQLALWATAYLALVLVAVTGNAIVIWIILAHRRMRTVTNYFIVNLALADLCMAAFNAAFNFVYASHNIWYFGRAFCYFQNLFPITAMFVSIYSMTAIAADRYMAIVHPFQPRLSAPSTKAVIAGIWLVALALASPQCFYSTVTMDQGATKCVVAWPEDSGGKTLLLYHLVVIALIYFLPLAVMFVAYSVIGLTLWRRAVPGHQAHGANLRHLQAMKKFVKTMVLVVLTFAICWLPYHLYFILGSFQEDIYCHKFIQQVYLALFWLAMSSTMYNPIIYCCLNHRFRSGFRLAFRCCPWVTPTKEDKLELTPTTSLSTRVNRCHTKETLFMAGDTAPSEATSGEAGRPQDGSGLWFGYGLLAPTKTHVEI

NK3 (h) = molecular target: T19, NK3 (h) (Homo sapiens, UniProt P29371)
T19 construct: gene TACR3
T19 sequence (P29371 whole entry): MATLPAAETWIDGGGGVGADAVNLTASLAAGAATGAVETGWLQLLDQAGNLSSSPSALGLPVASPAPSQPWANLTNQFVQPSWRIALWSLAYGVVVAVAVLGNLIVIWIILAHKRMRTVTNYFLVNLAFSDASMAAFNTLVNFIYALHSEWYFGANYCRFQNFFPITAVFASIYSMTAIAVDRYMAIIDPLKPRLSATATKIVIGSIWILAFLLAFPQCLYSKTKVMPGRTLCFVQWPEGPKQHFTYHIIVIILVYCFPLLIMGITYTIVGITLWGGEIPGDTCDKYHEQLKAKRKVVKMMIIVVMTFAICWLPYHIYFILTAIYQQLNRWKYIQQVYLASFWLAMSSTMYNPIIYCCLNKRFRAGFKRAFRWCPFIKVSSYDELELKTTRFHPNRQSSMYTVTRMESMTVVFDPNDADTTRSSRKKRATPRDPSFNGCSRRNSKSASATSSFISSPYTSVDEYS

V1a (h) = molecular target: T20, V1a (h) (Homo sapiens, UniProt P37288)
T20 construct: gene AVPR1A

Y1 (h) = molecular target: T21, Y1 (h) (Homo sapiens, UniProt P25929)
T21 construct: gene NPY1R
T21 sequence (P25929 whole entry): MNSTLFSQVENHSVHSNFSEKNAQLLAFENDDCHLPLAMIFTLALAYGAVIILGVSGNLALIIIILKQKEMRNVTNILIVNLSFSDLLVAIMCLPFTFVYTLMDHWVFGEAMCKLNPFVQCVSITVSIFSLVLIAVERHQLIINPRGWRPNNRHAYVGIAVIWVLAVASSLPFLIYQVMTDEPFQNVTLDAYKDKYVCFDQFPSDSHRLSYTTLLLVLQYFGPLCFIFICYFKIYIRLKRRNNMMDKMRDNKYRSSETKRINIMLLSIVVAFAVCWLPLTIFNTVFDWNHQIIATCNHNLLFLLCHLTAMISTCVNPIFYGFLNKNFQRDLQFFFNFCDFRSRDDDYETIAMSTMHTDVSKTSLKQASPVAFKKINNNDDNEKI

delta (DOP) (h) = molecular target: T22, delta (DOP) (h) (Homo sapiens, UniProt P41143)
T22 construct: gene OPRD1
T22 sequence (P41143 whole entry): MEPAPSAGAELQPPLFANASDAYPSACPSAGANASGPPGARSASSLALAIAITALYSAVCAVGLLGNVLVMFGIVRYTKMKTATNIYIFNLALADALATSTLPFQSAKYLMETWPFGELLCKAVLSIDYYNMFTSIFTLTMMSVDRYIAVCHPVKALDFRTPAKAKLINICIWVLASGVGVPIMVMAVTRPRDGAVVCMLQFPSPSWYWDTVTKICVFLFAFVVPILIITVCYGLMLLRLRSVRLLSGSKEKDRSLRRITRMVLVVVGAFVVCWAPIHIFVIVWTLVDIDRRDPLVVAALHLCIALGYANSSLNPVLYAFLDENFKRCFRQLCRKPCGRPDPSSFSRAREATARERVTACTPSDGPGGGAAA

dopamine transporter (h) = molecular target: T23, dopamine transporter (h) (Homo sapiens, UniProt Q01959)
T23 construct: gene SLC6A3

kappa (KOP) = molecular target: T24, kappa (KOP) (Rattus norvegicus, UniProt P34975)
T24 construct: gene Oprk1
T24 sequence (P34975 whole entry): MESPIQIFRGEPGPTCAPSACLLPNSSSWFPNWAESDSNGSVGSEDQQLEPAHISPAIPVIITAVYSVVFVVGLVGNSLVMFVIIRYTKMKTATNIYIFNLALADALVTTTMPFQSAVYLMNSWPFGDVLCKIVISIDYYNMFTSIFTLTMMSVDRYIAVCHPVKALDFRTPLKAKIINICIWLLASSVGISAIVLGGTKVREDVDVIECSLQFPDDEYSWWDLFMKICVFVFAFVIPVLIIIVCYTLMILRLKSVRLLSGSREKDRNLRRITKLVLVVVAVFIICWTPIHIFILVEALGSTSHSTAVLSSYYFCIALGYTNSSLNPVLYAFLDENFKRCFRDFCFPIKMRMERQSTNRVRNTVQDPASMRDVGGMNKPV

mu (MOP) (h) = molecular target: T25, mu (MOP) (h) (Homo sapiens, UniProt P35372)
T25 construct: gene OPRM1
T25 sequence (P35372 whole entry): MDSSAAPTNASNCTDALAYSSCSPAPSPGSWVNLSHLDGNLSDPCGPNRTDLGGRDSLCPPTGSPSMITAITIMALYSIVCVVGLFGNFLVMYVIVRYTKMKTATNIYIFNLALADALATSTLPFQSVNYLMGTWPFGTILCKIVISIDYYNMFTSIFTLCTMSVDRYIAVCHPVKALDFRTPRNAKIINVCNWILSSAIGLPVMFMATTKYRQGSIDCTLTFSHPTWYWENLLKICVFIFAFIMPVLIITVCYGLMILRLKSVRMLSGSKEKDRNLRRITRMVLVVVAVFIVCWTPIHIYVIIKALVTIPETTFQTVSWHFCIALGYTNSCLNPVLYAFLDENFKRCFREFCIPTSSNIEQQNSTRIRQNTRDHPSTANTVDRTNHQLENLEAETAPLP

`Cc1ncsc1-c1ccc(CNC(=O)[C@@H]2C[C@@H](O)CN2C(=O)[C@@H](NC(=O)C2(C#N)CC2)C(C)(C)C)cc1` [VH298] gave a remaining binding at 50 µM (5-HT transporter (h)) of 92%, a remaining binding at 50 µM (5-HT1A (h)) of 82% and a remaining binding at 50 µM (5-HT2B (h)) of 91%. The remaining binding at 50 µM (5-HT3 (h)) was 92%, the remaining binding at 50 µM (5-HT5a (h)) was 105% and the remaining binding at 50 µM (5-HT7 (h)) was 99%. It also gave a remaining binding at 50 µM (A1 (h)) of 90%, a remaining binding at 50 µM (A2A (h)) of 121% and a remaining binding at 50 µM (A3 (h)) of 55%. The remaining binding at 50 µM (CB1 (h)) was 115%, the remaining binding at 50 µM (D1 (h)) was 103% and the remaining binding at 50 µM (ETA (h)) was 88%. The remaining binding at 50 µM (H1 (h)) was 101%, the remaining binding at 50 µM (H2 (h)) was 140% and the remaining binding at 50 µM (M1 (h)) was 94%. For the same molecule, the remaining binding at 50 µM (M2 (h)) was 94%, the remaining binding at 50 µM (M3 (h)) was 95% and the remaining binding at 50 µM (NK2 (h)) was 73%. The remaining binding at 50 µM (NK3 (h)) was 94%, the remaining binding at 50 µM (V1a (h)) was 95% and the remaining binding at 50 µM (Y1 (h)) was 106%. It also gave a remaining binding at 50 µM (delta (DOP) (h)) of 65%, a remaining binding at 50 µM (dopamine transporter (h)) of 90% and a remaining binding at 50 µM (kappa (KOP)) of 92%. For the same molecule, the remaining binding at 50 µM (mu (MOP) (h)) was 106%.
